Structures can show the parent of a compound that is named as a salt. Where two headings read alike, the source gives them in different places.
Key:
Assay type in all cases: cell-based, human
[1] = system: senescent IMR90 ER:RAS cells (4-OHT-induced); experiment: Nuclei count (Hoechst, high content imaging) senolytic assay, oncogene-induced senescence (OIS) model, senescent cells; settings: Homo sapiens
How it was run: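 IMR90 ER:RAS (p14), ±4-OHT 100 nM; cpd 10 nM–10 μM, 10-pt […], 72 h, n=3. Fix formaldehyde, Triton X-100, Hoechst 2 μg/ml final. Readout: imaged nuclei count vs untreated; ouabain positive control.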

[2] = system: senescent A549 cells (etoposide-induced); experiment: Nuclei count senolytic assay, therapy-induced senescence (TIS) model, senescent cells; settings: Homo sapiens, A549, Senescent cells, mean, read-out: Mean % Cell Survival; for viability at 10 µM: log (dose) [M] -5; for viability at 4.68 µM: log (dose) [M] -5.33; for viability at 2.19 µM: log (dose) [M] -5.66; for viability at 1 µM: log (dose) [M] -6; for viability at 0.468 µM: log (dose) [M] -6.33; for viability at 0.219 µM: log (dose) [M] -6.66; for viability at 0.1 µM: log (dose) [M] -7; for viability at 0.0468 µM: log (dose) [M] -7.33; for viability at 0.0219 µM: log (dose) [M] -7.66; for viability at 0.01 µM: log (dose) [M] -8
How it was run: (§1)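 Etoposide 100 μM, 48 h, + 3 d standard media → senescent A549; untreated A549 = controls. 24 h post-seeding, cpds 10 nM–10 μM final, 10-pt […], 72 h, n=3. Fix formaldehyde, permeabilise Triton-X100, Hoechst 2 μg/ml, image, count nuclei.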

[3] = system: non-senescent control A549 cells; experiment: Nuclei count senolytic assay, TIS model, non-senescent control cells; settings: Homo sapiens, A549, Control cells, mean, read-out: Mean % Cell Survival; for viability at 10 µM: log (dose) [M] -5; for viability at 4.68 µM: log (dose) [M] -5.33; for viability at 2.19 µM: log (dose) [M] -5.66; for viability at 1 µM: log (dose) [M] -6; for viability at 0.468 µM: log (dose) [M] -6.33; for viability at 0.219 µM: log (dose) [M] -6.66; for viability at 0.1 µM: log (dose) [M] -7; for viability at 0.0468 µM: log (dose) [M] -7.33; for viability at 0.0219 µM: log (dose) [M] -7.66; for viability at 0.01 µM: log (dose) [M] -8
How it was run: as §1

[4] = IMR-90, 72 h, Senescent, log (dose) [M] -5, 72 h, mean n=3 (Fig 3C), read-out: Mean % Cell Survival
[5] = IMR-90, 72 h, Senescent, log (dose) [M] -5.33, 72 h, mean n=3 (Fig 3C), read-out: Mean % Cell Survival
[6] = IMR-90, 72 h, Senescent, log (dose) [M] -5.66, 72 h, mean n=3 (Fig 3C), read-out: Mean % Cell Survival
[7] = IMR-90, 72 h, Senescent, log (dose) [M] -6, 72 h, mean n=3 (Fig 3C), read-out: Mean % Cell Survival
[8] = IMR-90, 72 h, Senescent, log (dose) [M] -6.33, 72 h, mean n=3 (Fig 3C), read-out: Mean % Cell Survival
[9] = IMR-90, 72 h, Senescent, log (dose) [M] -6.66, 72 h, mean n=3 (Fig 3C), read-out: Mean % Cell Survival
[10] = IMR-90, 72 h, Senescent, log (dose) [M] -7, 72 h, mean n=3 (Fig 3C), read-out: Mean % Cell Survival
[11] = IMR-90, 72 h, Senescent, log (dose) [M] -7.33, 72 h, mean n=3 (Fig 3C), read-out: Mean % Cell Survival
[12] = IMR-90, 72 h, Senescent, log (dose) [M] -7.66, 72 h, mean n=3 (Fig 3C), read-out: Mean % Cell Survival
[13] = IMR-90, 72 h, Senescent, log (dose) [M] -8, 72 h, mean n=3 (Fig 3C), read-out: Mean % Cell Survival
[14] = IMR-90, Senescent cells, log (dose) [M] -6, individual replicates, SUP FIG 4C, read-out: % Cell Survival

## COC[C@H]1C[C@@H](c2nc(-c3ccc4c(c3)COc3cc5c(ccc6nc([C@@H]7CC[C@H](C)N7C(=O)[C@@H](NC(=O)OC)C(C)C)[nH]c65)cc3-4)c[nH]2)N(C(=O)[C@H](NC(=O)OC)c2ccccc2)C1 [Velpatasvir, velpatasvir, reference compound]
[1]; [4]
  viability at 10 µM: 97.8%
[1]; [5]
  viability at 4.677 µM: 116%
[1]; [6]
  viability at 2.188 µM: 102%
[1]; [7]
  viability at 1 µM: 112%
[1]; [8]
  viability at 0.4677 µM: 78.2%
[1]; [9]
  viability at 0.2188 µM: 83.6%
[1]; [10]
  viability at 0.1 µM: 88.6%
[1]; [11]
  viability at 0.04677 µM: 91.5%
[1]; [12]
  viability at 0.02188 µM: 108%
[1]; [13]
  viability at 0.01 µM: 100%
[1]; IMR-90, Senescent cells, log (dose) [M] -5, individual replicates, SUP FIG 4C, read-out: % Cell Survival
  viability at 10 µM: 100%
[1]; IMR-90, Senescent cells, log (dose) [M] -5.66, individual replicates, SUP FIG 4C, read-out: % Cell Survival
  viability at 2.188 µM: 111%
[1]; [14]
  viability at 1 µM: 108%
[1]; IMR-90, Senescent cells, log (dose) [M] -6.66, individual replicates, SUP FIG 4C, read-out: % Cell Survival
  viability at 0.2188 µM: 90.3%
[1]; IMR-90, Senescent cells, log (dose) [M] -7, individual replicates, SUP FIG 4C, read-out: % Cell Survival
  viability at 0.1 µM: 89%
[1]; IMR-90, Senescent cells, log (dose) [M] -7.33, individual replicates, SUP FIG 4C, read-out: % Cell Survival
  viability at 0.04677 µM: 85.1%
[1]; IMR-90, Senescent cells, log (dose) [M] -7.66, individual replicates, SUP FIG 4C, read-out: % Cell Survival
  viability at 0.02188 µM: 103%
[1]; IMR-90, Senescent cells, log (dose) [M] -8, individual replicates, SUP FIG 4C, read-out: % Cell Survival
  viability at 0.01 µM: 94.1%
[2]
  viability at 10 µM: 114%
  viability at 4.68 µM: 105%
  viability at 2.19 µM: 120%
  viability at 1 µM: 122%
  viability at 0.468 µM: 122%
  viability at 0.219 µM: 113%
  viability at 0.1 µM: 112%
  viability at 0.0468 µM: 115%
  viability at 0.0219 µM: 91.3%
  viability at 0.01 µM: 104%
[3]
  viability at 10 µM: 80.9%
  viability at 4.68 µM: 84.4%
  viability at 2.19 µM: 80.3%
  viability at 1 µM: 52.9%
  viability at 0.468 µM: 93.4%
  viability at 0.219 µM: 28.7%
  viability at 0.1 µM: 88.2%
  viability at 0.0468 µM: 89.2%
  viability at 0.0219 µM: 92.1%
  viability at 0.01 µM: 96.1%

## CC[C@]1(O)C[C@@H]2CN(CCc3c([nH]c4ccccc34)[C@@](C(=O)OC)(c3cc4c(cc3OC)N(C)[C@H]3[C@@](O)(C(=O)OC)[C@H](OC(C)=O)[C@]5(CC)C=CCN6CC[C@]43[C@@H]65)C2)C1 [Vinblastine sulfate, vinblastine sulfate, reference compound]
[1]; [4]
  viability at 10 µM: 54.4%
[1]; [5]
  viability at 4.677 µM: 77.2%
[1]; [6]
  viability at 2.188 µM: 58.1%
[1]; [7]
  viability at 1 µM: 67.1%
[1]; [8]
  viability at 0.4677 µM: 61.7%
[1]; [9]
  viability at 0.2188 µM: 87%
[1]; [10]
  viability at 0.1 µM: 73.9%
[1]; [11]
  viability at 0.04677 µM: 108%
[1]; [12]
  viability at 0.02188 µM: 59.7%
[1]; [13]
  viability at 0.01 µM: 92.6%
[1]; [14]
  viability at 1 µM: 70.9%
[1]; IMR-90, Senescent, log (dose) [M] -5, read-out: % Cell Survival
  viability at 10 µM: 89.1%
[1]; IMR-90, Senescent, log (dose) [M] -5.33, read-out: % Cell Survival
  viability at 4.677 µM: 88%
[1]; IMR-90, Senescent, log (dose) [M] -5.66, read-out: % Cell Survival
  viability at 2.188 µM: 86.9%
[1]; IMR-90, Senescent, log (dose) [M] -6, read-out: % Cell Survival
  viability at 1 µM: 68.2%
[1]; IMR-90, Senescent, log (dose) [M] -6.33, read-out: % Cell Survival
  viability at 0.4677 µM: 96.2%
[1]; IMR-90, Senescent, log (dose) [M] -6.66, read-out: % Cell Survival
  viability at 0.2188 µM: 103%
[1]; IMR-90, Senescent, log (dose) [M] -7, read-out: % Cell Survival
  viability at 0.1 µM: 109%
[1]; IMR-90, Senescent, log (dose) [M] -7.33, read-out: % Cell Survival
  viability at 0.04677 µM: 92.4%
[1]; IMR-90, Senescent, log (dose) [M] -7.66, read-out: % Cell Survival
  viability at 0.02188 µM: 112%
[1]; IMR-90, Senescent, log (dose) [M] -8, read-out: % Cell Survival
  viability at 0.01 µM: 114%
[2]
  viability at 10 µM: 88.8%
  viability at 4.68 µM: 83.2%
  viability at 2.19 µM: 90.4%
  viability at 1 µM: 72.2%
  viability at 0.468 µM: 92.1%
  viability at 0.219 µM: 97.3%
  viability at 0.1 µM: 103%
  viability at 0.0468 µM: 99.9%
  viability at 0.0219 µM: 103%
  viability at 0.01 µM: 104%
[3]
  viability at 10 µM: 47.4%
  viability at 4.68 µM: 46.3%
  viability at 2.19 µM: 48.5%
  viability at 1 µM: 47%
  viability at 0.468 µM: 45.9%
  viability at 0.219 µM: 49.9%
  viability at 0.1 µM: 52.9%
  viability at 0.0468 µM: 66.7%
  viability at 0.0219 µM: 69.2%
  viability at 0.01 µM: 78.7%

From article PMC10257182, “Discovery of senolytics using machine learning” (Nature Communications, 2023)
